Data set [1] in a line: Laser characteristics of pyrromethene-BF2 complexes under flashlamp excitation (Table IV). Conditions: DMA/MeOH.
Data set [2] in a line: Solubility/fluorescence in various solvents (Tables I, II). Type of data set: physicochemical. The method, then: In addition, tests were conducted on the product in order to determine its solubility/fluorescence in various solvents. One property of the compositions described herein involves a variable degree of solubility/fluorescence relative to the solvents with which they are combined. Data showing a variety of different solvents combined with the product of Example I is presented below in Table I:
As in Example I, tests were conducted on the product in Example II in order to determine its fluorescence in various solvents. Data showing a variety of different solvents combined with the product of Example II is presented below in Table II: […]

A short description of data set [3]: Triplet-triplet (T--T) absorption. The class given is physicochemical. To be noted: fluorescent spectral area. The method, then:
The T--T absorption spectrum was recorded at 77K, employing a 1×10^-4 molar solution of 2-methyltetrahydrofuran as solvent.

The structures appear in SMILES notation. Where a name gives a salt, the structure may show the parent alone.

The results in this text go back to patent publication US5446157A, “Boron difluoride compounds useful in photodynamic therapy and production of laser light” (priority 1993, dated 1995).

As to `CC1=C(S(=O)(=O)O)C(C)=[N+]2C1=C(C)c1c(C)c(S(=O)(=O)O)c(C)n1[B-]2(F)F` [PMPDS-BF2, Disodium salt of 4,4-difluoro-1,3,5,7,8-pentamethyl-4-bora-3a,4a-diaza-s-indacene-2,6-disulfonic acid monohydrate], the Life entry in data set [1] is listed as “very long”. For the same molecule, the Solubility entry in data set [2] ((CF3)2 CHOH) is given as “Insoluble”; in data set [2] (CH2 Cl2) it was “Insoluble”; in data set [2] (CH3 CO2 C2 H5), “Insoluble”; in data set [2] (H2 O), “Soluble”; in data set [2] (O(CH2 CH2)2 O) it was “Insoluble”. In addition, the “T--T absorption” value in data set [3] is “barely detectable”. Besides, the “T--T absorption ε.tau.” value in data set [3] is ~ 3×10^-3.
